# Source: US11691981B2, “Heterocyclic compounds, preparation methods therefor, and methods of uses thereof” (INVENTISBIO CO., LTD., priority 2019, dated 2023)
# Columns and labels:
# [1] = molecular target: TGFβR1 (Homo sapiens (Human), UniProt P36897); assay: TGFβR1 kinase inhibition assay (ADP-Glo Kinase Assay); assay type: biochemical; settings: 40 nM TGFβR1 in 2x enzyme mix, 5.4 μM ATP in 2x substrate mix, 120 min RT
# Experimental: TGFβR1 kinase assay was performed according to the instruction manual of the ADP-Glo™ Kinase Assay kit provided by Promega. Prepare 1× Kinase buffer (50 mM Tris pH7.5, 0.1% BSA, 10 mM MgCl2, 1 mM DTT). Before activation reaction was started, Compounds were dissolved in DMSO and make 100× solution with 3-fold serial dilution for a total of 10 concentrations. Transfer 50 nL compounds to 384-well plate according to plate map using the automated liquid handler. […] Add 5 μL ADP-Glo Reagent to terminate the kinase reaction and deplete the remaining ATP, incubate at RT for 60 minutes. Add 10 μL Kinase Detection Reagent to convert ADP to ATP and allow the newly synthesized ATP to be measured using a luciferin reaction, incubate at RT for 30 minutes. Collect luminescence data with Envision.
# [2] = molecular target: TGFβR2 (Homo sapiens (Human), UniProt P37173); assay: TGFβR2 kinase inhibition assay (ADP-Glo); assay type: biochemical; settings: 10 uM ATP, 120 min room temperature
# TGFβR2, sequence (P37173 23-567): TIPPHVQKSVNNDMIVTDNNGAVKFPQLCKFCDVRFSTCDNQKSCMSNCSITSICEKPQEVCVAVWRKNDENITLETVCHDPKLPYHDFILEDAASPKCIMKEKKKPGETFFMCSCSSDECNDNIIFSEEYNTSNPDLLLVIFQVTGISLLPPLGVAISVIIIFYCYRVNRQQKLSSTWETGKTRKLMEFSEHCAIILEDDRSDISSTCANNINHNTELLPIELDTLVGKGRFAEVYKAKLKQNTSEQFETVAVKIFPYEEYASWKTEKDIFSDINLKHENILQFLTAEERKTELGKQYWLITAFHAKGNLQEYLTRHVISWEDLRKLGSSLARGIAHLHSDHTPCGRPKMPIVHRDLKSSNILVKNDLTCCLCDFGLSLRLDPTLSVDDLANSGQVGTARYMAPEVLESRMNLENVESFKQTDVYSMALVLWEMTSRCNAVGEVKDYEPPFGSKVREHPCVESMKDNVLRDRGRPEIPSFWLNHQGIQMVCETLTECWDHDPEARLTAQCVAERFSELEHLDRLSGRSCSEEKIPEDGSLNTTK
# Experimental: The TGFβR2 enzyme reaction was carried out as follows: 50 nL of compound in DMSO (or DMSO controls) were stamped into 384 white, low-volume plates. 2.5 μL of 2× enzyme solution (final enzyme concentration was 3 ng/uL in 40 mMTris, 7.5; 20 mM MgCl2; 0.1 mg/mL BSA; 1 mM DTT) was dispensed into assay plate. The plate was then sealed and spun at 1000 rpm for 30 s and incubated at room temperature for 10 min. Followed by addition of 2.5 μL of 2× substrate solution that contains both ATP (to make a final concentration of 10 uM) and TGFβR2 substrate (final concentration of 0.2 ug/uL). The plate was then sealed and spun at 1000 rpm for 30 s and the reaction was then incubated at room temperature for 120 min. After that 5 μL ADP-Glo™ Reagent was added into the assay wells to stop the reaction and deplete unconsumed ATP for 40 min at room temperature; then, 10 μL of Detection Reagent was added into the assay wells, followed by 40 min incubation to develop luminescence. The luminescence signal was then collected on Envision 2104 plate reader.
# TGFβR1, sequence (P36897 34-503): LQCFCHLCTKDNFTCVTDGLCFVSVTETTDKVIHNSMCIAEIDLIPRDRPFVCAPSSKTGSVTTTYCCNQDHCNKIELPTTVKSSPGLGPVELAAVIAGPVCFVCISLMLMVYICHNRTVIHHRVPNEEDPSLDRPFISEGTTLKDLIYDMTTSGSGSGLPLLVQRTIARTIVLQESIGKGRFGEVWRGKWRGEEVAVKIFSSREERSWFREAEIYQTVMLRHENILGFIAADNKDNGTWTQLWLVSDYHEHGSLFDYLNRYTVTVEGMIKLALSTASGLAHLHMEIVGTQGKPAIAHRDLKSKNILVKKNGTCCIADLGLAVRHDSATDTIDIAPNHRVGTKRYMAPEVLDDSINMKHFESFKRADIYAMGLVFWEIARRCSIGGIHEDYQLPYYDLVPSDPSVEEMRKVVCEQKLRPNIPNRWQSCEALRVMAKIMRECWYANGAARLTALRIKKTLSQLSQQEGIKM
Compound,IC50 [1],IC50 [2]
C[C@@H]1C[C@@H](n2nc(C(F)(F)F)cc2Oc2ccnc(Nc3ccnc(C(C)(C)O)c3)c2)C[C@H](C)O1 [Compound 30],89 nM,–
CC(C)(O)c1cc(Nc2cc(Oc3cc(C(F)(F)F)nn3-c3ccccc3C#N)ccn2)ccn1 [Compound 51],55 nM,–
C[C@@H]1C[C@H](n2nc(C3CC3)cc2Oc2ccnc(Nc3ccnc(C(C)(C)O)c3)c2)C[C@H](C)O1 [Compound 19],7710 nM,–
CC(C)(O)c1ccc(Nc2cc(Oc3cc(C(F)(F)F)nn3-c3ccccc3F)ccn2)cn1 [Compound 52],21 nM,16000 nM
CC1(C)OC(=N)c2ccc(Nc3cc(Oc4cn(C5CC5)nc4C4CCOCC4)ccn3)cc21 [Compound 78],22 nM,> 100000 nM
C[C@@H]1C[C@H](n2nc(C(F)(F)F)cc2Oc2ccnc(Nc3ccnc(C(C)(C)O)c3)c2)C[C@H](C)O1 [Compound 31],1040 nM,–
CC(C)(O)c1cc(Nc2cc(Oc3cc(C(F)(F)F)nn3-c3ccncc3)ccn2)ccn1 [Compound 48],132 nM,–
NS(=O)(=O)c1ccc(Nc2cc(Oc3cc(C4CC4)nn3C3CCOCC3)ccn2)cc1 [Compound 14],37 nM,> 100000 nM
CC(C)(O)c1cc(Nc2cc(Oc3cc(C(F)(F)F)nn3C3CC3)ccn2)ccn1 [Compound 27],58 nM,–
CC(C)(O)c1cc(Nc2cc(Oc3cc(C(F)(F)F)nn3-c3cncnc3)ccn2)ccn1 [Compound 42],263 nM,–
N#Cc1cccc(Nc2cc(Oc3cc(C(F)(F)F)nn3C3CCOCC3)ccn2)c1 [Compound 9],163 nM,> 100000 nM
COc1cc(Oc2ccnc(Nc3ccnc(C(C)(C)O)c3)c2)n(C2CCOCC2)n1 [Compound 39],126 nM,–
CC(C)(O)c1cc(Nc2cc(Oc3cn(C4CCC4)nc3C3CCOCC3)ccn2)ccn1 [Compound 67],51 nM,> 100000 nM
CC(C)(O)c1cc(Nc2cc(Oc3cn(CC(F)(F)F)nc3C3CCOCC3)ccn2)ccn1 [Compound 69],454 nM,> 100000 nM
CC1(C)OC(=O)c2ccc(Nc3cc(Oc4cn(C5CC5)nc4C4CCOCC4)ccn3)cc21 [Compound 79],29 nM,73000 nM
CC(C)(O)c1cc(Nc2cc(Oc3sc(C4CC4)nc3C3CCOCC3)ccn2)ccn1 [Compound 72],111 nM,–
CC(C)(O)c1cc(Nc2cc(Sc3cn(C4CC4)nc3C3CCOCC3)ccn2)ccn1 [Compound 70],80 nM,–
Cc1nc(C(F)(F)F)ccc1Oc1ccnc(Nc2ccnc(C(C)(C)O)c2)c1 [Compound 65],14 nM,–
CC(C)(O)c1cc(Nc2cc(Oc3cc(C(F)(F)F)nn3CC3CC3)ccn2)ccn1 [Compound 20],48 nM,–
CC(C)(O)c1cc(Nc2cc(Oc3cn(C4CC4)nc3C3CCC(F)(F)CC3)ccn2)ccn1 [Compound 77],–,39000 nM
CCn1nc(C(F)(F)F)cc1Oc1ccnc(Nc2ccnc(C(C)(C)O)c2)c1 [Compound 22],54 nM,–
CC(C)c1nc(C2CCOCC2)c(Oc2ccnc(Nc3ccnc(C(C)(C)O)c3)c2)s1 [Compound 76],90 nM,–

Compound,IC50 [1],IC50 [2]
Cc1ccc(-n2nc(C(F)(F)F)cc2Oc2ccnc(Nc3ccnc(C(C)(C)O)c3)c2)cc1 [Compound 34],42 nM,17000 nM
CC(C)(O)c1cc(Nc2cc(Oc3cc(C(F)(F)F)nn3[C@H]3C[C@H]4CC[C@@H](C3)O4)ccn2)ccn1 [Compound 50],113 nM,–
COc1ccc(Oc2ccnc(Nc3ccnc(C(C)(C)O)c3)c2)c(C)n1 [Compound 64],32 nM,–
CC1(C)OC(=N)c2ccc(Nc3cc(Oc4cc(C5CC5)nn4C4CCOCC4)ccn3)cc21 [Compound 46],66 nM,–
CC(C)(O)c1cc(Nc2cc(Oc3cc(C(F)(F)F)nn3C3CCNCC3)ccn2)ccn1 [Compound 26],88 nM,–
CC(C)(O)c1cc(Nc2cc(Oc3cc(C4CC4)nn3C3CC3)ccn2)ccn1 [Compound 5],43 nM,> 100000 nM
Cc1ccc(Oc2ccnc(Nc3ccc(C(C)(C)O)nc3)c2)c(C)n1 [Compound 62],29 nM,–
CC(C)(C)n1nc(C2CC2)cc1Oc1ccnc(Nc2ccc(S(N)(=O)=O)cc2)c1 [Compound 15],94 nM,> 100000 nM
CC(C)(O)c1ccc(Nc2cc(Oc3cc(C(F)(F)F)nn3-c3c(F)cccc3F)ccn2)cn1 [Compound 53],18 nM,56000 nM
CC(C)(O)c1cc(Nc2cc(Oc3cc(C(F)(F)F)nn3-c3ccccc3)ccn2)ccn1 [Compound 17],12 nM,1000 nM
Cc1cc(Oc2ccnc(Nc3ccnc(C(C)(C)O)c3)c2)n(C2CCOCC2)n1 [Compound 4],60 nM,–
CC(C)(O)c1cc(Nc2cc(Oc3cc(C(F)(F)F)nn3-c3c(F)cccc3F)ccn2)ccn1 [Compound 45],13 nM,21000 nM
CC(C)(O)c1cc(Nc2cc(Oc3cc(C(F)(F)F)nn3-c3cccc(Cl)c3)ccn2)ccn1 [Compound 36],56 nM,–
Cc1ccc(Oc2ccnc(Nc3ccc(S(N)(=O)=O)cc3)c2)c(C2CCOCC2)n1 [Compound 59],32 nM,10000 nM
Cc1ccc(Oc2ccnc(Nc3ccnc(C(C)(C)O)c3)c2)c(C2CC2)n1 [Compound 58],39 nM,11000 nM
CC(C)(O)c1cc(Nc2cc(Oc3ccc(C4CC4)nc3C3CCOCC3)ccn2)ccn1 [Compound 61],116 nM,–
CC(C)(O)c1cc(Nc2cc(Oc3cc(C(F)(F)F)nn3C(C)(C)C)ccn2)ccn1 [Compound 16],34 nM,34000 nM
CC(C)(O)c1cc(Nc2cc(Oc3cc(C(F)(F)F)nn3-c3ccc(Cl)cc3)ccn2)ccn1 [Compound 43],159 nM,–
Cc1ccc(Oc2ccnc(Nc3ccnc(C(C)(C)O)c3)c2)c(C(F)(F)F)n1 [Compound 63],82 nM,–
CC(C)(O)c1cc(Nc2cc(Oc3cc(C4CC4)nn3C3CCOCC3)ccn2)ccn1 [Compound 1],61 nM,–
COc1ccc(Oc2ccnc(Nc3ccnc(C(C)(C)O)c3)c2)c(C2CCOCC2)n1 [Compound 56],220 nM,–
CC(C)(O)c1cc(Nc2cc(Oc3c(C4CCOCC4)nn4c3CCC4)ccn2)ccn1 [Compound 71],25 nM,–

Compound,IC50 [1],IC50 [2]
CC(C)(O)c1cc(Nc2cc(Oc3cn(C4CCCC4)nc3C3CCOCC3)ccn2)ccn1 [Compound 68],631 nM,> 100000 nM
CC(C)(O)c1cc(Nc2cc(Oc3cc(C4CC4)nn3C(C)(C)C)ccn2)ccn1 [Compound 6],46 nM,–
NS(=O)(=O)c1ccc(Nc2cc(Oc3cn(C4CC4)nc3C3CCOCC3)ccn2)cc1 [Compound 73],14 nM,–
CC(C)(O)c1cc(Nc2cc(Oc3cc(C4CC4)nn3[C@H]3C[C@H]4CC[C@@H](C3)O4)ccn2)ccn1 [Compound 28],35 nM,36000 nM
CC(C)(O)c1cc(Nc2cc(Oc3cc(C(F)(F)F)nn3-c3ccc(C#N)cc3)ccn2)ccn1 [Compound 44],141 nM,–
CC(C)(O)c1cc(Nc2cc(Oc3cc(C4CC4)nn3CC(F)(F)F)ccn2)ccn1 [Compound 21],37 nM,> 100000 nM
CC(C)(O)c1cc(Nc2cc(Oc3cc(C(F)(F)F)nn3-c3cccnc3)ccn2)ccn1 [Compound 37],283 nM,–
CC1(C)OC(=O)c2ccc(Nc3cc(Oc4cc(C5CC5)nn4C4CCOCC4)ccn3)cc21 [Compound 47],103 nM,–
CC(C)(O)c1cc(Nc2cc(Oc3cc(C(F)(F)F)nn3C3CNC3)ccn2)ccn1 [Compound 24],223 nM,–
CC(C)(O)c1cc(Nc2cc(Oc3cc(C(F)(F)F)nn3-c3ccccc3Cl)ccn2)ccn1 [Compound 40],71 nM,–
Cc1ccc(Oc2ccnc(Nc3ccnc(C(C)(C)O)c3)c2)c(CC(C)C)n1 [Compound 66],4 nM,–
C[C@@H]1CC(c2nn(C3CC3)cc2Oc2ccnc(Nc3ccnc(C(C)(C)O)c3)c2)C[C@H](C)O1 (some centres unmarked) [Compound 74],17 nM,–
C[C@@H]1C[C@@H](n2nc(C3CC3)cc2Oc2ccnc(Nc3ccnc(C(C)(C)O)c3)c2)C[C@H](C)O1 [Compound 18],> 10000 nM,–
CC(C)(O)c1cc(Nc2cc(Oc3cc(C(F)(F)F)nn3C3CCNC3)ccn2)ccn1 (centres unmarked) [Compound 32],868 nM,–
CC(C)(O)c1cc(Nc2cc(Oc3ccc(C(F)(F)F)nc3C3CCOCC3)ccn2)ccn1 [Compound 60],50 nM,–
CC(C)(C)c1nc(C2CC2)sc1Oc1ccnc(Nc2ccnc(C(C)(C)O)c2)c1 [Compound 75],6690 nM,–
CC(C)(O)c1cc(Nc2cc(Oc3cn(C4CC4)nc3C(=O)Nc3ccccc3F)ccn2)ccn1 [Compound 80],57 nM,–
CC(C)(O)c1cc(Nc2cc(Oc3cc(C(F)(F)F)nn3-c3ccc(F)cc3)ccn2)ccn1 [Compound 35],86 nM,–
CC(C)n1nc(C(F)(F)F)cc1Oc1ccnc(Nc2ccnc(C(C)(C)O)c2)c1 [Compound 25],66 nM,–
CC(C)(O)c1cc(Nc2cc(Oc3cc(C(F)(F)F)nn3[C@@H]3C[C@H]4CC[C@@H](C3)O4)ccn2)ccn1 [Compound 49],32 nM,–
